The target of this experiment is T1, human δ802βγ ENaC (Homo sapiens, UniProt P51168+P51170+P51172).
T1 construct: Bioelectric features of full-length human δ802 epithelial sodium channels (ENaC) in Xenopus oocytes; expressed in transfected cells; host or cells: Xenopus laevis oocytes injected with cRNA (pGEM HE vector)
T1 sequence (P51172 1-802): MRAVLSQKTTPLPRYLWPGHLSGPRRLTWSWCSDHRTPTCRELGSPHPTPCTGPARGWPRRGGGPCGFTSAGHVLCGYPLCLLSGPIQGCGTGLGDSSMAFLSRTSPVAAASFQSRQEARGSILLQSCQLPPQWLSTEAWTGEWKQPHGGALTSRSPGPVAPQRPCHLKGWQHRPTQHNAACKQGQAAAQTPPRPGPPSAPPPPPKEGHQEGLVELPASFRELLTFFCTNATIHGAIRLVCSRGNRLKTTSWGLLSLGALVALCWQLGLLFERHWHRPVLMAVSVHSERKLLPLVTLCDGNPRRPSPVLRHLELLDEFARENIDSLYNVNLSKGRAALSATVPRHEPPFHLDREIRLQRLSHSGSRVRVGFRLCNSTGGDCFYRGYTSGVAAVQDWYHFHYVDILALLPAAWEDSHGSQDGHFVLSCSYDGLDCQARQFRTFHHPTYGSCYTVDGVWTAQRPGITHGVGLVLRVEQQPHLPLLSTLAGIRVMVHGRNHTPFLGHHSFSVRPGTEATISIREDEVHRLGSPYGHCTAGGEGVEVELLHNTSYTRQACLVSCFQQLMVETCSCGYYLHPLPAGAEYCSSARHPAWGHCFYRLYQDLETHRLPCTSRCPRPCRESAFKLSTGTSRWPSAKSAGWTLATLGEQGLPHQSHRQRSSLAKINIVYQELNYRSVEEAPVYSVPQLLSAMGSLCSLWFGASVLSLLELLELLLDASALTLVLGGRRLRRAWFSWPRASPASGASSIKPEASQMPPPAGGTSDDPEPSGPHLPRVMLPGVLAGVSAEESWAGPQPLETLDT
T1 sequence (P51168 1-640): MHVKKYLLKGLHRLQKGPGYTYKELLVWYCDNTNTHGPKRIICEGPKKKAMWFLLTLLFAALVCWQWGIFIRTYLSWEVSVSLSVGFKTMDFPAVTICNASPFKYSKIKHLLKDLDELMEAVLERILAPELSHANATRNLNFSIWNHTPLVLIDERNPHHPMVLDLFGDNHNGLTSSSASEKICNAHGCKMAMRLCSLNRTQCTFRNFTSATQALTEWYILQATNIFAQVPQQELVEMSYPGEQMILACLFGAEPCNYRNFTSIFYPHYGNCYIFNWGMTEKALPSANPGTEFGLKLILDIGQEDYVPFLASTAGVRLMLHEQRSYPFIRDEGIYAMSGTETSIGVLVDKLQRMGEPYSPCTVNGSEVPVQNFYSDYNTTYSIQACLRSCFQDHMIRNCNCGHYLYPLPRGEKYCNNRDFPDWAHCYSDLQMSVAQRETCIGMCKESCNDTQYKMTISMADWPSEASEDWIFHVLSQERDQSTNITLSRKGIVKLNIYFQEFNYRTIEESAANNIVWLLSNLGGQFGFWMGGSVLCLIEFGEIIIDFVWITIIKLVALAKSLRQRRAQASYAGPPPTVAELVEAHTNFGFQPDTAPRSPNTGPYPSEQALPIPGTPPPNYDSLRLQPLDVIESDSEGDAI
T1 sequence (P51170 1-649): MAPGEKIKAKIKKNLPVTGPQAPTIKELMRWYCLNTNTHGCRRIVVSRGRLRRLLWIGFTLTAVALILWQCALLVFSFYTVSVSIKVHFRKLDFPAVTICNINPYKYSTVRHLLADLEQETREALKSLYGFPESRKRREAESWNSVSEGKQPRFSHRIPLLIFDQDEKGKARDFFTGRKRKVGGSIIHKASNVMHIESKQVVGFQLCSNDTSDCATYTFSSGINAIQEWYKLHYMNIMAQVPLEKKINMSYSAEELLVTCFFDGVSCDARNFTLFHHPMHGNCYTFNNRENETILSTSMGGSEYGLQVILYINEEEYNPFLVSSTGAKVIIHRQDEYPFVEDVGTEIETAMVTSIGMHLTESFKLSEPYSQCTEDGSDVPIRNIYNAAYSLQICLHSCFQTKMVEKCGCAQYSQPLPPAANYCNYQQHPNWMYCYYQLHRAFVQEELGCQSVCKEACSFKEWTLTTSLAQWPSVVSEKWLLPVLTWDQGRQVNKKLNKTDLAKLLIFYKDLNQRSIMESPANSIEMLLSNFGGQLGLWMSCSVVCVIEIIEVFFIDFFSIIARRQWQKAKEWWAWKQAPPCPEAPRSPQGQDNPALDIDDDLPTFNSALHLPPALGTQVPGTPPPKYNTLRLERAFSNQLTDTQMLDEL
Kind of experiment: Two-electrode voltage clamp of δ802βγ-ENaC expressed in Xenopus oocytes. Format: cell-based. On the procedure:
Cloning, in vitro transcription, and heterologous expression of δ802 ENaC and two-electrode voltage clamping assay. δ802 and other ENaC subunits were generated in human ENaC cDNAs cloned into a pGEM HE vector [4], [76]. cRNAs of human α, β, and γ ENaC were prepared as described previously. The stoichiometry of native ENaC complexes is unclear to date. Based on the studies in the last decade, several models have been proposed for αβγ ENaC channels: 1α1β1γ, 2α1β1γ, 3α3β3γ. Based on the EM structure of human αβγ ENaC [35], the currently acceptable model of human αβγ ENaC complexes is heterotrimeric (1α1β1γ). Thus we microinjected δ802:β:γ in a 1:1:1 subunit ratio. Oocytes were surgically removed from appropriately anesthetized adult female Xenopus laevis (Xenopus Express). Briefly, the ovarian tissue was removed from the frog under anesthesia by tricaine-S (Western Chemicals) through a small incision in the lower abdomen. Ovarian lobes were removed and digested in OR-2 calcium-free medium (in mM: 82.5 NaCl, 2.5 KCl, 1.0 MgCl2, 1.0 Na2HPO4, and 10.0 HEPES, pH 7.5) with the addition of 2 mg/ml collagenase (Roche, Indianapolis). Defolliculated oocytes were injected with ENaC cRNAs into the cytosol (25 ng per oocyte in 50 nl of RNase-free water) and incubated in regular OR-2 medium at 18°C. The two-electrode voltage-clamp technique was used to record whole-cell currents 48 h post injection. Oocytes were impaled with two electrodes filled with 3M KCl, having resistance of 0.5 - 2 MΩ. A TEV-200A voltage-clamp amplifier (Dagan) was used to clamp oocytes with concomitant recording of currents. Two reference electrodes were connected to the bath. The continuously perfused bathing solution was ND-96 medium (in mM: 96.0 NaCl, 1.0 MgCl2, 1.8 CaCl2, 2.5 KCl, and 5.0 HEPES, pH 7.5). Whole-cell currents were recorded as previously reported. Experiments were controlled by pCLAMP 10.7 software (Molecular Devices), and currents at -40 mV, -100 mV, and +80 mV were continuously monitored with data recorded at intervals of 10 sec. Data were sampled at the rate of 200 Hz and filtered at 50 Hz.

By IC50 is commonly meant the concentration at which inhibition is half-maximal.

Where two headings read alike, the source gives them in different places.

`N=C(N)NC(=O)c1nc(Cl)c(N)nc1N` [amiloride]: the IC50 (accumulating doses perfused to oocytes expressing δ802βγ-ENaC, n=17, mean ± s.e.m., SEM, read-out: IC50 value, dose-response curve fitted with the Hill equation) came out at 1690 ± 300 nM.
As to Ac-LRGTLPHPLQRLR-NH2 [α-13 peptide], the “effect on δ802βγ-ENaC activity” value (300 μM, -100 mV, n=5) is “slightly elevated”. In addition, the IC50 (oocytes, current at -100 mV, n=3, Chi^2 = 0.77, R^2 = 0.86, legend prints δ802βγ, read-out: IC50, dotted line (for δ802βγ) (Hill equation)) was 40 ± 70 nM.

B1: plasmin: serine protease of the plasmin(ogen) signal pathway for fibrinolysis (protein, UniProt P00747 20-580; P00747 581-810, looked up)
Plasmin heavy chain A: EPLDDYVNTQGASLFSVTKKQLGAGSIEECAAKCEEDEEFTCRAFQYHSKEQQCVIMAENRKSSIIIRMRDVVLFEKKVYLSECKTGNGKNYRGTMSKTKNGITCQKWSSTSPHRPRFSPATHPSEGLEENYCRNPDNDPQGPWCYTTDPEKRYDYCDILECEEECMHCSGENYDGKISKTMSGLECQAWDSQSPHAHGYIPSKFPNKNLKKNYCRNPDRELRPWCFTTDPNKRWELCDIPRCTTPPPSSGPTYQCLKGTGENYRGNVAVTVSGHTCQHWSAQTPHTHNRTPENFPCKNLDENYCRNPDGKRAPWCHTTNSQVRWEYCKIPSCDSSPVSTEQLAPTAPPELTPVVQDCYHGDGQSYRGTSSTTTTGKKCQSWSSMTPHRHQKTPENYPNAGLTMNYCRNPDADKGPWCFTTDPSVRWEYCNLKKCSGTEASVVAPPPVVLLPDVETPSEEDCMFGNGKGYRGKRATTVTGTPCQDWAAQEPHRHSIFTPETNPRAGLEKNYCRNPDGDVGGPWCYTTNPRKLYDYCDVPQCAAPSFDCGKPQVEPKKCPGR
Plasmin light chain B: VVGGCVAHPHSWPWQVSLRTRFGMHFCGGTLISPEWVLTAAHCLEKSPRPSSYKVILGAHQEVNLEPHVQEIEVSRLFLEPTRKDIALLKLSSPAVITDKVIPACLPSPNYVVADRTECFITGWGETQGTFGAGLLKEAQLPVIENKVCNRYEFLNGRVQSTELCAGHLAGGTDSCQGDSGGPLVCFEKDKYILQGVTSWGLGCARPNKPGVYVRVSRFVTWIEGVMRNN
modifications: Plasmin
notes: serine protease of the plasmin(ogen) signal pathway for fibrinolysis
With B1, the “effect of serine protease incubation on δ802βγ activity” value (oocytes, -100 mV, tc-uPA 10 μg/ml, time course in minutes) was “activated the δ802βγ activity in minutes”.

The values above are taken from paper PMC6857051, “Proliferative regulation of alveolar epithelial type 2 progenitor cells by human Scnn1d gene” (Theranostics, 2019).
